According to patent US20250345370A1, “MICROBIAL LIBERATION OF N-METHYLSEROTONIN FROM ORANGE FIBER” (Washington University, priority 2022, published 2025):
Where two headings read alike, the source gives them in different places.

Assays:
[1] = for 2-methylserotonin remaining: 200 ng spike-in
rat hepatocytes = details: cited from earlier work
[2] = Human studies with pea and orange fiber snack prototypes: fecal N-methylserotonin and serotonin levels; type: in vivo; details: in vivo
Procedure: Human studies with pea and orange fiber snack prototypes. Two separate open-label, single group assignment studies were performed involving members of the Missouri Adolescent Female Twin Study (MOAFTS) cohort who were age 31-45 years at the time of enrollment. The first study with the pea fiber snack was performed between April and August 2017, while the second study with the orange fiber snack was conducted between August and December 2017. All participants provided written informed consent and the studies were approved by the Washington University Institutional Review Board (IRB ID #201611122). (ClinicalTrials.gov NCT03078283).
The design of the two studies were identical except for the fiber snack supplement used and the number of participants in each study. Individuals who were pregnant or trying to get pregnant, had inflammatory bowel disease, gastrointestinal cancer, hepatitis, HIV, renal failure, or allergies to dairy, eggs, fish, crustacean shellfish, tree nuts, sesame seeds, peanuts, wheat, gluten, soybeans, celery, or mustard were excluded from the study. In Study 1, four twin pairs were concordant for obesity (BMI>30 kg/m2) while five pairs were discordant with one member being obese and the other non-obese (n=18 participants, […] (mean±SD); Table S8B). Study 2 involved 24 participants: 12 dizygotic twin pairs [37±2.9 years (mean±SD)], nine of whom had participated in the pea fiber study; for these nine pairs, the interval between cessation of pea fiber snack consumption and initiation of orange fiber consumption ranged from 50 to 106 days [84+26 days (mean±SD)]. Participants consumed their normal, unrestricted diet for the first two weeks of the study (pre-intervention phase). At the beginning of week three, they supplemented their diets with one 35 g fiber snack serving a day for one week, then two 35 g snack servings a day the following week, and thereafter, three 35 g snacks per day for four weeks (weeks 5-8) at breakfast, lunch and dinner. No attempt was made to adjust the diets of participants other than supplementation with the fiber snack. Snack prototypes were manufactured by Mondeldz International, Inc. (see Table S8A for their composition), which participants received in weekly shipments from the study center. The pea fiber snacks were in the form of rotary biscuits (6.7 g total fiber/35 g snack) or extruded bars (8.1 g fiber/35 g snack) with participants having the option to alternate between them. The orange fiber snacks were all in the form of extruded bars (10.2 g total fiber/35 g snack). Compliance was monitored throughout by the study coordinator through weekly phone calls. The primary outcomes for each study were the effects of the respective prototypes on gut microbial community structure and function.
Fecal samples were collected by participants in small medically approved collection containers. Each fecal sample was frozen immediately at −20° C. and temporarily stored in dedicated freezers provided to participants at the beginning of the study. Within 12-48 hours after collection, all samples were shipped, via overnight delivery, in an insulated container containing frozen gel packs, to a biospecimen repository located in Washington University in St. Louis and overseen by one of the authors (A.C.H.). Once received, samples were stored at −80° C. until processing for LC-QqQ-MS analysis of N-methylserotonin levels and culture-independent characterization of ASV and CAZyme gene abundances.
Measurement of fecal N-methylserotonin levels—Each fecal sample was homogenized with a porcelain mortar (4 L) and pestle while submerged in liquid nitrogen; multiple 500 mg aliquots of the pulverized frozen material were stored at −80° C. N-methylserotonin was quantified using the same protocol that was employed for mouse fecal samples (as described herein elsewhere).
N-methylserotonin levels and microbiome CAZyme gene abundances in humans consuming fiber snack prototypes. […]

[3] = In vitro screening of bacterial strains for N-methylserotonin releasing activity from orange fiber; type: cell-based, human gut bacterial strains; details: for N-methylserotonin released, MEGA Medium 2.0 72 hrs / N-methylserotonin released, TYG medium 8 hrs / N-methylserotonin released, TYG medium 24 hrs / N-methylserotonin released, TYG medium 48 hrs / N-methylserotonin released, TYG medium 72 hrs / N-methylserotonin released, Wilkins-Chalgren 72 hrs: 5 mg/ml orange fiber, normalized to 10^6 microbes, n=3
Procedure: In vitro screening of bacterial strains for N-methylserotonin releasing activity. A given bacterial strain was grown in monoculture at 37° C. in TYG medium in an anaerobic chamber (atmosphere; 75% N2, 20% CO2 and 5% H2) to stationary phase. An aliquot was then added to 10 mL of fresh TYG medium with or without 50 mg of orange fiber that had been sterilized by gamma irradiation (30-50 KGy); the mixture was incubated under anaerobic conditions without shaking for 72 hours. A 200 μL aliquot was then removed for targeted LC-QqQ-MS measurement of N-methylserotonin levels; another aliquot was used to define the number of colony-forming units so that levels of the analyte were expressed per 10^6 cells. An identical protocol was used to compare the amount of N-methylserotonin released when two other rich media, MEGA medium 2.0 and Wilkins-Chalgren anaerobe broth (Thermo-Fisher), were used in lieu of TYG. All incubations were performed in triplicate for each condition. […]
Bacterial strains capable of mining of N-methylserotonin from orange fiber in vitro. Given that detection of N-methylserotonin was dependent on colonization with the bacterial consortium and consumption of orange fiber, it was next investigated which community members were responsible for its appearance. Each of the 14 community members was grown in monoculture to stationary phase in TYG medium; 10^5 cells of each organism were incubated in 10 mL of a 5 mg/mL suspension of orange fiber for 8, 24, 48, 72 and 168 hours. N-methylserotonin was quantified using targeted LC-QqQ-MS. […] At this time point, Bacteroides ovatus strain TSDC 17.2 and a strain of Parabacteroides distasonis yielded similar quantities of product (29±1 and 24±2 ng N-methylserotonin/10^6 cells, respectively). In contrast, the 12 other strains yielded<1.5 ng/10^6 cells—an amount that was not appreciably higher than background levels (triplicate incubations/organism; FIG. 1C). […]

[4] = Release of N-methylserotonin from orange fiber by commercially available glycoside hydrolase preparations; type: biochemical
Procedure: Enzymatic screening of citrus & plant samples. All enzymatic assays are carried out using a total volume of 10 ml in water, 50 mg of plant fiber material tested and 700 active units of the same cellulase enzyme mixture (Sigma) as described herein. Samples were processed based on their condition, divided as follows. Citrus fibers sourced from various citrus types, described in Table S9 as “Ground,” are added directly to the enzymatic assay, while citrus fibers described as either “Granule” or “Whole” are first manually pulverized into a fine powder via mortar and pestle. The commercially available fiber source is classified as “Ground” if it was already processed into fine powder, or otherwise small enough granules in which individual pieces cannot be manually picked up via forceps. The commercially available fiber source is classified as “Granule” or “Whole” if individual fragments or pieces of the fiber is readily discernable, where “Granule” are applied to visibly uniform samples and “Whole” applied to all other samples. […]
Identifying genes involved in release of N-methylserotonin from orange fiber. […] When orange fiber (50 mg) was subjected to repeated rounds of extraction with methanol, small quantities of N-methylserotonin were released after each round (31 ng after two rounds; 171 ng in total after 15 rounds; Table S4F). […]

[5] = Control experiments of bacterial N-methylserotonin release (heat-killed cells, conditioned media, lysates); type: cell-based, human gut bacterial strains
Procedure: Experiments seeking to test the necessity of having live bacteria to extract N-methylserotonin were carried out by first incubating monocultures of B. ovatus, B. finegoldii, […] conditions to stationary phase. The stationary phase culture was then treated at 70° C. for 1 hour. […]
Experiments using conditioned media were carried out by taking monocultures of B. ovatus, B. finegoldii, P. distasonis, […], centrifuging the culture for […]
Experiments using bacterial lysates were carried out by bead-beating of bacterial cells, collected by centrifugation from 10 mL stationary phase TYG cultures for 4 minutes at room temperature; 500 μL of the […] To ensure sterility in these experiments, aliquots of the heat-treated cells, centrifuged conditioned media, or bacterial lysate were cultured in TYG medium for 7 days and subsequently plated on TYG-agar; the results confirmed the absence of colony forming units. Assays were performed in triplicate for each experimental condition.
These experiments indicate that mining requires intact viable cells.

Question: Which 2-methylserotonin remaining ([1]; Extraction 1) does the source give for `Cc1[nH]c2ccc(O)cc2c1CCN` [2-methylserotonin, reference compound] here?
Answer: Its 2-methylserotonin remaining is 190 ng.

Question: And the 2-methylserotonin remaining ([1]; Extraction 2)?
Answer: Its 2-methylserotonin remaining is 10 ng.

Question: And the 2-methylserotonin remaining ([1]; Extraction 3)?
Answer: Its 2-methylserotonin remaining is 0 ng.

Question: And the 2-methylserotonin remaining ([1]; Extraction 4)?
Answer: The 2-methylserotonin remaining was 0 ng.

Question: And the 2-methylserotonin remaining ([1]; Extraction 5)?
Answer: The 2-methylserotonin remaining was 0 ng.

Question: What about the 2-methylserotonin remaining ([1]; Extraction 6) of the same compound?
Answer: Its 2-methylserotonin remaining is 0 ng.

Question: And the 2-methylserotonin remaining ([1]; Extraction 7)?
Answer: The 2-methylserotonin remaining was 0 ng.

Question: And the 2-methylserotonin remaining ([1]; Extraction 8)?
Answer: Its 2-methylserotonin remaining is 0 ng.

Question: And the 2-methylserotonin remaining ([1]; Extraction 9)?
Answer: Its 2-methylserotonin remaining is 0 ng.

Question: And the 2-methylserotonin remaining ([1]; Extraction 10)?
Answer: The 2-methylserotonin remaining was 0 ng.

Question: And the 2-methylserotonin remaining ([1]; Extraction 11)?
Answer: Its 2-methylserotonin remaining is 0 ng.

Question: What about the 2-methylserotonin remaining ([1]; Extraction 12) of the same compound?
Answer: Its 2-methylserotonin remaining is 0 ng.

Question: What about the 2-methylserotonin remaining ([1]; Extraction 13) of the same compound?
Answer: The 2-methylserotonin remaining was 0 ng.

Question: What about the 2-methylserotonin remaining ([1]; Extraction 14) of the same compound?
Answer: Its 2-methylserotonin remaining is 0 ng.

Question: What about the 2-methylserotonin remaining ([1]; Extraction 15) of the same compound?
Answer: The 2-methylserotonin remaining was 0 ng.

Question: And the “2-methylserotonin removed by the first cycle of extraction” value ([1]; methanol, spike-in added to orange fiber)?
Answer: The value was 95%.

Question: With `CC(N)Cc1c[nH]c2ccc(O)cc12` (stereo not drawn) [alpha-methylserotonin] as the compound, how does the glycogen synthesis (rat hepatocytes) read?
Answer: The glycogen synthesis was “able to increase glycogen synthesis”.

Question: What does the source list for `NCCc1c[nH]c2ccc(O)cc12` [serotonin]?
Answer: fecal serotonin levels ([2]; female, human): 7 ± 5.7 µM; fecal serotonin levels as % of that of N-methylserotonin [2]: 0-8.6%; glycogen synthesis (rat hepatocytes): decreases glycogen synthesis

Question: Which results are given for Bacteroides cellulosilyticus?
Answer: N-methylserotonin released, MEGA Medium 2.0 72 hrs [3]: 1.0 ± 0.2 ng; N-methylserotonin released, TYG medium 8 hrs [3]: 0.3 ± 0.1 ng; N-methylserotonin released, TYG medium 24 hrs [3]: 0.3 ± 0.1 ng; N-methylserotonin released, TYG medium 48 hrs [3]: 0.6 ± 0.1 ng; N-methylserotonin released, TYG medium 72 hrs [3]: 0.9 ± 0.2 ng; N-methylserotonin released, Wilkins-Chalgren 72 hrs [3]: 1 ± 0.2 ng

Question: Which results are given for Cellulase?
Answer: N-methylserotonin levels at 72 h ([4]; 50 mg orange fiber incubated with enzyme): 2727.9 ± 25.5 ng; total yield of N-methylserotonin ([4]; orange fiber incubated with enzyme preparation): 2728±26 ng/50 mg orange fiber

Question: For Parabacteroides distasonis, which “N-methylserotonin levels, Cellular extract” value ([5]; Mega 2.0 (+orange fiber)) is on record?
Answer: The value was 0.3 ± 0.1 ng.

Question: What about the “N-methylserotonin levels, Conditioned media” value ([5]; Mega 2.0 (+orange fiber)) of the same compound?
Answer: The value was 0.3 ± 0.1 ng.

Question: What about the “N-methylserotonin levels, Heat inactivated” value ([5]; Mega 2.0 (+orange fiber)) of the same compound?
Answer: The value was 0.4 ± 0.1 ng.

Question: What about the “N-methylserotonin levels, Cellular extract” value ([5]; Mega 2.0, no orange fiber) of the same compound?
Answer: The value was “ND (ND (not detected)=N-methylserotonin levels below 0.02 ng)”.

Question: And the “N-methylserotonin levels, Conditioned media” value ([5]; Mega 2.0, no orange fiber)?
Answer: The value was “ND (ND (not detected)=N-methylserotonin levels below 0.02 ng)”.

Question: What about the “N-methylserotonin levels, Heat inactivated” value ([5]; Mega 2.0, no orange fiber) of the same compound?
Answer: The value was “ND (ND (not detected)=N-methylserotonin levels below 0.02 ng)”.

Question: What about the “N-methylserotonin levels, Cellular extract” value ([5]; TYG (+orange fiber)) of the same compound?
Answer: Its value is 0.2 ± 0.1 ng.

Question: What about the “N-methylserotonin levels, Conditioned media” value ([5]; TYG (+orange fiber)) of the same compound?
Answer: The value was 0.3 ± 0.1 ng.

Question: And the “N-methylserotonin levels, Heat inactivated” value ([5]; TYG (+orange fiber))?
Answer: The value was 0.3 ± 0.1 ng.

Question: What about the “N-methylserotonin levels, Cellular extract” value ([5]; TYG, no orange fiber) of the same compound?
Answer: Its value is “ND (ND (not detected)=N-methylserotonin levels below 0.02 ng)”.

Question: And the “N-methylserotonin levels, Conditioned media” value ([5]; TYG, no orange fiber)?
Answer: The value was “ND (ND (not detected)=N-methylserotonin levels below 0.02 ng)”.

Question: What about the “N-methylserotonin levels, Heat inactivated” value ([5]; TYG, no orange fiber) of the same compound?
Answer: Its value is “ND (ND (not detected)=N-methylserotonin levels below 0.02 ng)”.

Question: What about the “N-methylserotonin levels with heat-killed cells, lysates or conditioned medium” value ([5]; fresh TYG with orange fiber, 72 hours) of the same compound?
Answer: The value was “failed to yield levels of N-methylserotonin above background”.

Question: And the “N-methylserotonin released, MEGA Medium 2.0 72 hrs” value [3]?
Answer: The value was 24.8 ± 2.1 ng.

Question: What about the “N-methylserotonin released, TYG medium 8 hrs” value [3] of the same compound?
Answer: Its value is 0.3 ± 0.1 ng.

Question: What about the “N-methylserotonin released, TYG medium 24 hrs” value [3] of the same compound?
Answer: The value was 1.0 ± 0.1 ng.

Question: What about the “N-methylserotonin released, TYG medium 48 hrs” value [3] of the same compound?
Answer: The value was 7.5 ± 0.7 ng.

Question: And the “N-methylserotonin released, TYG medium 72 hrs” value [3]?
Answer: The value was 24.3 ± 2.4 ng.

Question: And the “N-methylserotonin released, Wilkins-Chalgren 72 hrs” value [3]?
Answer: The value was 22.1 ± 0.7 ng.

Question: And the “N-methylserotonin yielded at the 72-hour time point” value ([3]; TYG, 5 mg/mL orange fiber, triplicate)?
Answer: The value was 24±2 ng N-methylserotonin/10^6 cells.
